{"source": "patent US20240016795A1", "about": "“BROMODOMAIN INHIBITORS FOR ANDROGEN RECEPTOR-DRIVEN CANCERS” (FORMA Therapeutics, Inc., priority 2020, published 2024)", "key": {"SPDEF": {"system": "SPDEF", "assay": "qPCR gene expression in 22Rv1, SPDEF", "type": "cell-based", "conditions": "Homo sapiens, 22Rv1, 24 h", "protocol": "(§1) RNA was extracted using Qiacube RNAeasy Mini (Qiagen). For all genes tested, the qPCR reactions were carried out in triplicate with 250 ng RNA per reaction and Taqman® primer-probes. GAPDH was used as a housekeeping gene."}, "[1]": {"system": "human kinases and disease-relevant mutant variants", "assay": "KINOMEscan screen", "type": "binding"}, "CAMA1": {"system": "CAMA1", "assay": "10-day CellTiter-Glo antiproliferative assay, CAMA1", "type": "cell-based", "conditions": "Homo sapiens, CAMA-1, 240 h, 10-day exposure, AR High, ER +, Her2 −", "protocol": "(§2) Breast cell lines were cultured according to the distributor's recommendations. The following day, cells were exposed to compounds up to 10 days. Cell viability was assessed using a CellTiter-Glo® assay (Promega) at the end of the incubation period. The growth inhibitory effect was assessed by the concentration inhibiting growth by 50% using a nonlinear regression equation and a variable slope (Graphpad Prism). The mRNA expression levels for the androgen receptor (HUGO: AR) was determined from the DepMap Portal database (release 19Q2)."}, "KLK3": {"system": "KLK3", "assay": "qPCR gene expression in AR-v7+ prostate cancer cells, KLK3", "type": "cell-based", "conditions": "24 h", "protocol": "(§3) AR-v7+ prostate cancer cells were exposed to compounds 1, 2, 3, or 4 for 24 h. RNA was extracted and gene expression was measured by qPCR using Taqman® primer-probes. GAPDH was used as a housekeeping gene."}, "KLK3 (PSA)": {"system": "KLK3 (PSA)", "assay": "qPCR gene expression in 22Rv1, KLK3 (PSA)", "type": "cell-based", "conditions": "Homo sapiens, 22Rv1, 24 h", "protocol": "as §1"}, "MYC": {"system": "MYC", "assay": "qPCR gene expression in AR-v7+ prostate cancer cells, MYC", "type": "cell-based", "conditions": "24 h", "protocol": "as §3"}, "MDA-MB-453": {"system": "MDA-MB-453", "assay": "10-day CellTiter-Glo antiproliferative assay, MDA-MB-453", "type": "cell-based", "conditions": "Homo sapiens, MDA-MB-453, 240 h; 10-day exposure, CellTiter-Glo; AR High, ER −, Her2 +/−; read-out: IC50 (μM), MDA-MB-453", "protocol": "as §2"}, "FKBP5": {"system": "FKBP5", "assay": "qPCR gene expression in 22Rv1, FKBP5", "type": "cell-based", "conditions": "Homo sapiens, 22Rv1, 24 h", "protocol": "as §1"}, "DU 145": {"system": "DU 145", "assay": "10-day prostate cancer cell proliferation assay, DU 145", "type": "cell-based", "conditions": "Homo sapiens, DU-145, 240 h; 10 days exposure; AR negative", "protocol": "Prostate cell lines were obtained from ATCC or DSMZ and cultured according to the distributor's recommendations. Prostate cancer cells were plated and incubated overnight. […] Cell viability was assessed using a CellTiter-Glo® assay (Promega) after 10 days drug exposure. The growth inhibitory effect was assessed by the concentration inhibiting growth by 50% using a nonlinear regression equation and a variable slope (Graphpad Prism)."}, "[2]": {"system": "patient-derived xenograft (PDX) model of AR+ prostate cancer sensitive to enzalutamide", "assay": "Patient-derived xenograft of prostate cancer sensitive to enzalutamide", "type": "in vivo, NOG mice", "conditions": "Compound 1 40 mg/kg/day, enzalutamide 20 mg/kg/day", "protocol": "The antitumor activity was determined based by tumor volume during the course of the study.\nMale NOG mice (6-8 weeks of age) were implanted with tumor fragments. When tumors reached an average tumor volume of 150-200 mm^3 animals were randomized into different cohort groups and dosing initiated on the same day (Day 0). Animals were weighed twice weekly.\n[…] 11."}, "HCC1500": {"system": "HCC1500", "assay": "10-day CellTiter-Glo antiproliferative assay, HCC1500", "type": "cell-based", "conditions": "HCC1500, 240 h, 10-day exposure, AR High, ER +, Her2 −", "protocol": "as §2"}, "BT549": {"system": "BT549", "assay": "10-day CellTiter-Glo antiproliferative assay, BT549", "type": "cell-based", "conditions": "Homo sapiens, BT-549, 240 h, 10-day exposure, AR Low, ER −, Her2 −", "protocol": "as §2"}, "TMPRSS2 [3]": {"system": "TMPRSS2", "assay": "qPCR gene expression in AR-v7+ prostate cancer cells, TMPRSS2", "type": "cell-based", "conditions": "24 h", "protocol": "as §3"}, "[4]": {"system": "AR+ triple negative breast cancer xenograft", "assay": "AR+ triple negative breast cancer cell line derived xenograft", "type": "in vivo, NOD SCID mice", "conditions": "50 mg/kg orally daily", "protocol": "Briefly, AR-positive breast cancer tumor cells (1×107) were implanted subcutaneously in the flank of 6-8-week-old NOD SCID mice. Mice were randomized, and treatment started when mean tumor size reached 160 mm^3 (8 mice per cohort). […] Tumor volume (TV) was measured twice weekly by caliper and the tumor volume (mm^3) calculated as follows: TV=a×b×b/2, where “a” and “b” are long and short diameters of a tumor, respectively.\nThe average body weight loss was 3.7%.\nThe study was completed using methods analogous to those described in Example 7, above.\nThree dosing cycles were completed for mice within these cohorts.\nMice in the 30 mg/kg cohort were dosed daily for three weeks.\nTumor volume was assessed at Day 14, Day 17, Day 21, Day 24, and Day 27 of the study."}, "AR-v7": {"system": "AR-v7", "assay": "AR-v7 protein level by western blot in prostate cancer cells", "type": "cell-based"}, "AR": {"system": "AR", "assay": "AR protein level by western blot in prostate cancer cells", "type": "cell-based"}, "SORD": {"system": "SORD", "assay": "qPCR gene expression in VCaP, SORD", "type": "cell-based", "conditions": "Homo sapiens, 24 h", "protocol": "as §1"}, "TMPRSS2 [5]": {"system": "TMPRSS2", "assay": "qPCR gene expression in 22Rv1, TMPRSS2", "type": "cell-based", "conditions": "Homo sapiens, 22Rv1, 24 h", "protocol": "as §1"}}, "note": "pIC50: −log10 of the molar value."}
{"smiles": "COC(=O)N1c2ccc3c(nc([C@H](O)c4cc(F)ccc4OC)n3[C@@H]3CCC[C@@H](C(=O)O)C3)c2CC[C@@H]1C", "note": "[Compound 1, (1R,3R)-3-[(7S)-2-[(R)-(5-fluoro-2-methoxyphenyl)(hydroxy)methyl]-6-(methoxycarbonyl)-7-methyl-3H,6H,7H,8H,9H-imidazo[4,5-f]quinolin-3-yl]cyclohexane-1-carboxylic acid]", "values": [{"measurement": "IC50", "setting": "SPDEF", "result": "> 0.1", "unit": "µM"}, {"measurement": "binding affinity for kinases", "setting": "[1]", "result": "no to low binding affinity"}, {"measurement": "IC50", "setting": "CAMA1", "result": "< 0.2", "unit": "µM"}, {"measurement": "pIC50", "setting": "KLK3", "result": "7.30 to 8.00"}, {"measurement": "IC50", "setting": "KLK3 (PSA)", "result": "0.01 to 0.05", "unit": "µM"}, {"measurement": "pIC50", "setting": "MYC", "result": "< 7.00"}, {"measurement": "IC50", "setting": "MDA-MB-453", "result": "< 0.2", "unit": "µM"}, {"measurement": "IC50", "setting": "FKBP5", "result": "> 0.1", "unit": "µM"}, {"measurement": "pIC50", "setting": "DU 145", "result": "< 6.00"}, {"measurement": "AR target gene SPDEF expression in tumor", "setting": "[2]; four days", "result": "reduced"}, {"measurement": "H3K27Ac in tumor", "setting": "[2]; four days", "result": "reduction of H3K27Ac"}, {"measurement": "TGI at the end of study", "setting": "[2]; start of dosing to day 59", "result": "comparable"}, {"measurement": "IC50", "setting": "HCC1500", "result": "0.5 to 1", "unit": "µM"}, {"measurement": "IC50", "setting": "BT549", "result": "> 1", "unit": "µM"}, {"measurement": "pIC50", "setting": "TMPRSS2 [3]", "result": "> 8.00"}, {"measurement": "average body weight loss", "setting": "[4]", "result": 3.7, "unit": "%"}, {"measurement": "tumor growth inhibition (TGI)", "setting": "[4]; end of treatment, versus vehicle control", "result": 104, "unit": "%"}, {"measurement": "AR-v7 reduction maintained after removal of compound", "setting": "AR-v7; 22Rv1, after a 24 hr exposure", "result": 72, "unit": "h"}, {"measurement": "AR-v7 protein level", "setting": "AR-v7; androgen-independent (AR-v7+) prostate cancer cells, western blot", "result": "reduced"}, {"measurement": "return of AR to baseline level following removal of compound", "setting": "AR; 22Rv1, after a 24 hr exposure", "result": "≤ 24", "unit": "h"}, {"measurement": "AR protein level", "setting": "AR; androgen-independent and androgen-dependent prostate cancer cell lines, western blot", "result": "dose dependent reduction"}, {"measurement": "IC50", "setting": "SORD", "result": "> 0.1", "unit": "µM"}, {"measurement": "IC50", "setting": "TMPRSS2 [5]", "result": "< 0.01", "unit": "µM"}]}
